± gives the expanded uncertainty stated by the source.
Conditions: Liquid, Hot wire method

FC(F)CC(F)(F)F [1,1,1,3,3-pentafluoropropane]
Conditions | thermal conductivity [W/m/K]
323.16 K, 330 kPa | 0.08023 ± 0.001
323.16 K, 19684 kPa | 0.09037 ± 0.0012
323.16 K, 19687 kPa | 0.09046 ± 0.0012
323.23 K, 13828 kPa | 0.0878 ± 0.0011
323.23 K, 13836 kPa | 0.08777 ± 0.0011
323.31 K, 8785 kPa | 0.08509 ± 0.0011
323.31 K, 8786 kPa | 0.08508 ± 0.0011
323.33 K, 69855 kPa | 0.1079 ± 0.0014
323.33 K, 69859 kPa | 0.1079 ± 0.0014
323.4 K, 58551 kPa | 0.1046 ± 0.0013
323.41 K, 58550 kPa | 0.1047 ± 0.0013
323.46 K, 49806 kPa | 0.1018 ± 0.0013
323.46 K, 49813 kPa | 0.1019 ± 0.0013
323.52 K, 40518 kPa | 0.09873 ± 0.0013
323.52 K, 40523 kPa | 0.09883 ± 0.0013
323.56 K, 33191 kPa | 0.09593 ± 0.0012
323.57 K, 33190 kPa | 0.0959 ± 0.0012
323.65 K, 26145 kPa | 0.09305 ± 0.0012
323.65 K, 26148 kPa | 0.09303 ± 0.0012
323.66 K, 4345 kPa | 0.08263 ± 0.0011
323.67 K, 4353 kPa | 0.08281 ± 0.0011
323.71 K, 19685 kPa | 0.09038 ± 0.0012
323.72 K, 19683 kPa | 0.09025 ± 0.0012
323.74 K, 330 kPa | 0.08004 ± 0.001
323.74 K, 331 kPa | 0.08014 ± 0.001
323.8 K, 13825 kPa | 0.08771 ± 0.0011
323.8 K, 13826 kPa | 0.08762 ± 0.0011
323.88 K, 8784 kPa | 0.08522 ± 0.0011
323.89 K, 8785 kPa | 0.08516 ± 0.0011
341.35 K, 31717 kPa | 0.09048 ± 0.0012
341.36 K, 791 kPa | 0.07387 ± 0.00096
341.36 K, 807 kPa | 0.07373 ± 0.00095
341.36 K, 31723 kPa | 0.09099 ± 0.0012
341.37 K, 4061 kPa | 0.07637 ± 0.00099
341.37 K, 4066 kPa | 0.07637 ± 0.00099
341.37 K, 8227 kPa | 0.07909 ± 0.001
341.38 K, 8222 kPa | 0.07861 ± 0.001
341.39 K, 12846 kPa | 0.08132 ± 0.001
341.4 K, 12858 kPa | 0.08189 ± 0.001
341.41 K, 18251 kPa | 0.08455 ± 0.0011
341.42 K, 18258 kPa | 0.08459 ± 0.0011
341.43 K, 24450 kPa | 0.08726 ± 0.0011
341.44 K, 24457 kPa | 0.08772 ± 0.0011
341.44 K, 39673 kPa | 0.09407 ± 0.0012
341.44 K, 39675 kPa | 0.0951 ± 0.0012
341.65 K, 48504 kPa | 0.09719 ± 0.0012
341.66 K, 48505 kPa | 0.09738 ± 0.0012
341.69 K, 58414 kPa | 0.1006 ± 0.0013
341.71 K, 58417 kPa | 0.101 ± 0.0013
341.73 K, 69248 kPa | 0.1039 ± 0.0013
341.75 K, 69269 kPa | 0.1038 ± 0.0013
341.77 K, 31709 kPa | 0.09087 ± 0.0012
341.77 K, 31711 kPa | 0.09067 ± 0.0012
341.79 K, 800 kPa | 0.07352 ± 0.00095
341.79 K, 8213 kPa | 0.07901 ± 0.001
341.79 K, 8220 kPa | 0.07915 ± 0.001
341.8 K, 798 kPa | 0.074 ± 0.00096
341.8 K, 4049 kPa | 0.07607 ± 0.00098
341.8 K, 4060 kPa | 0.07627 ± 0.00099
341.8 K, 12862 kPa | 0.08133 ± 0.001
341.8 K, 18252 kPa | 0.08459 ± 0.0011
341.8 K, 18254 kPa | 0.0841 ± 0.0011
341.81 K, 12851 kPa | 0.08125 ± 0.001
341.81 K, 24448 kPa | 0.08731 ± 0.0011
341.81 K, 24452 kPa | 0.08759 ± 0.0011
341.83 K, 39657 kPa | 0.09382 ± 0.0012
341.83 K, 39667 kPa | 0.09362 ± 0.0012
342.05 K, 48492 kPa | 0.09719 ± 0.0012
342.06 K, 48492 kPa | 0.09719 ± 0.0012
342.09 K, 58399 kPa | 0.1006 ± 0.0013
342.1 K, 58406 kPa | 0.1005 ± 0.0013
342.12 K, 69235 kPa | 0.1042 ± 0.0013
342.12 K, 69238 kPa | 0.104 ± 0.0013
342.21 K, 31695 kPa | 0.09091 ± 0.0012
342.23 K, 24443 kPa | 0.08756 ± 0.0011
342.23 K, 31701 kPa | 0.09082 ± 0.0012
342.24 K, 18254 kPa | 0.08456 ± 0.0011
342.24 K, 18263 kPa | 0.08459 ± 0.0011
342.24 K, 24457 kPa | 0.08773 ± 0.0011
342.25 K, 8211 kPa | 0.079 ± 0.001
342.25 K, 8213 kPa | 0.0788 ± 0.001
342.25 K, 12847 kPa | 0.08139 ± 0.001
342.26 K, 12846 kPa | 0.08139 ± 0.001
342.27 K, 4048 kPa | 0.07633 ± 0.00099
342.27 K, 39655 kPa | 0.09411 ± 0.0012
342.28 K, 795 kPa | 0.07417 ± 0.00096
342.28 K, 4064 kPa | 0.07591 ± 0.00098
342.28 K, 39659 kPa | 0.09393 ± 0.0012
342.29 K, 784 kPa | 0.07414 ± 0.00096
342.49 K, 48484 kPa | 0.09716 ± 0.0012
342.51 K, 48493 kPa | 0.09719 ± 0.0012
342.51 K, 58384 kPa | 0.1004 ± 0.0013
342.53 K, 58390 kPa | 0.1005 ± 0.0013
342.53 K, 69205 kPa | 0.104 ± 0.0013
342.54 K, 69218 kPa | 0.1038 ± 0.0013
342.7 K, 24435 kPa | 0.08753 ± 0.0011
342.71 K, 18288 kPa | 0.08467 ± 0.0011
342.71 K, 24437 kPa | 0.08761 ± 0.0011
342.72 K, 31697 kPa | 0.09082 ± 0.0012
342.72 K, 31698 kPa | 0.09091 ± 0.0012
342.73 K, 18277 kPa | 0.08453 ± 0.0011
342.74 K, 12836 kPa | 0.08165 ± 0.001
342.75 K, 12854 kPa | 0.08161 ± 0.001
342.75 K, 39640 kPa | 0.09416 ± 0.0012
342.75 K, 39649 kPa | 0.09419 ± 0.0012
342.77 K, 8198 kPa | 0.07878 ± 0.001
342.77 K, 8214 kPa | 0.07886 ± 0.001
342.8 K, 4060 kPa | 0.07628 ± 0.00099
342.81 K, 4048 kPa | 0.07623 ± 0.00099
342.82 K, 778 kPa | 0.074 ± 0.00096
342.83 K, 779 kPa | 0.07358 ± 0.00095
342.98 K, 48479 kPa | 0.09746 ± 0.0013
342.99 K, 48476 kPa | 0.09717 ± 0.0012
342.99 K, 58371 kPa | 0.1007 ± 0.0013
342.99 K, 69188 kPa | 0.1043 ± 0.0013
342.99 K, 69203 kPa | 0.1043 ± 0.0013
343 K, 58374 kPa | 0.1007 ± 0.0013
343.21 K, 24431 kPa | 0.0874 ± 0.0011
343.22 K, 24434 kPa | 0.0876 ± 0.0011
343.25 K, 18297 kPa | 0.0846 ± 0.0011
343.25 K, 18305 kPa | 0.08481 ± 0.0011
343.25 K, 31683 kPa | 0.09097 ± 0.0012
343.25 K, 31692 kPa | 0.09092 ± 0.0012
343.27 K, 39640 kPa | 0.09411 ± 0.0012
343.28 K, 39648 kPa | 0.09409 ± 0.0012
343.29 K, 12856 kPa | 0.08212 ± 0.0011
343.3 K, 12844 kPa | 0.08186 ± 0.001
343.33 K, 8193 kPa | 0.07913 ± 0.001
343.33 K, 8208 kPa | 0.07905 ± 0.001
343.38 K, 4043 kPa | 0.07572 ± 0.00098
343.39 K, 4045 kPa | 0.07592 ± 0.00098
343.42 K, 777 kPa | 0.07373 ± 0.00095
343.43 K, 791 kPa | 0.07347 ± 0.00095
343.48 K, 69162 kPa | 0.1043 ± 0.0013
343.49 K, 69172 kPa | 0.1045 ± 0.0013
343.5 K, 48465 kPa | 0.09758 ± 0.0013
343.5 K, 58358 kPa | 0.1009 ± 0.0013
343.5 K, 58363 kPa | 0.1009 ± 0.0013
343.51 K, 48479 kPa | 0.0974 ± 0.0012

— the NIST ThermoML archive (doi:10.1021/acs.jced.6b00350)
